Patent US8338599B2, “Compounds having a potentiating effect on the activity of ethionamide and uses thereof” (priority 2006, dated 2012)
≈ marks a conversion by molar mass, not a printed value. Where “and” joins values, the source holds several entries; their conditions need not be identical. Identical values can stand only once.

Key:
EthR protein [1] = target: T1, EthR protein (Mycobacterium tuberculosis, UniProt P9WMC1); assay: In vitro measurement of the IC50 (EthR/DNA binding, BIAcore); parameters: species or system M. tuberculosis H37Rv
Procedure: b) In Vitro Measurement of the IC50 of the Compounds of the Invention.
The in vitro measurement of this datum was performed according to the same principle as for the measurement of inhibition of the EthR/DNA binding using the BIAcore technique.
The specific interaction between EthR and the specific 106-bp DNA fragment was measured on a range of six concentrations of the compounds of the invention, this range extending from 0.11 μM to 27 μM. The IC50 values are then extrapolated from the sigmoid curves obtained.

M. bovis BCG = assay type: cell-based, M. bovis BCG 1173P2; conditions: from MIC of ETH alone (6 μM) and MIC of ETH with 25 μM compound
[2] = Measurement of the solubility (PBS pH 7.4 vs methanol, LC/MS); assay type: physicochemical; conditions: pH 7.4, aqueous buffer, kinetic from dmso stock
Procedure: e) Measurement of the Solubility of the Compounds of the Invention
40 μl of a solution containing a compound of the invention at a concentration of 10 mM in DMSO were diluted in 1.960 ml of methanol, and another 40 μl were diluted in 1.960 ml of a PBS solution containing 675 mM of NaCl, 13.5 mM of KCl, 50 mM of Na2HPO4.2H2O and 10 mM of KH2PO4 at a pH of 7.4. The two solutions were stirred for 24 hours at room temperature, and then centrifuged for 5 minutes and filtered through 0.45 μm filters. 20 μl of each solution were then diluted in 118 μl of methanol and analyzed by liquid chromatography coupled to mass spectrometry (LC/MS). The solubility was determined by the ratio of the areas under the curve of the mass signal for the compound of the invention, according to the following equation: […]

M. tuberculosis H37Rv = assay: Ethionamide-potentiating effect, fluorimetric detection on Bactec MGIT 960; assay type: cell-based; conditions: for bacterial growth-inhibiting properties of the compound alone: 25 μM, no ETH (lines A5 and D3); for MIC: Mycobacterium tuberculosis, H37RV, read-out: MIC for ETH in the presence of compound; for MIC / potentiation of the ethionamide activity (factor): compound 25 μM
EthR protein [3] = target: T1, EthR protein; assay: Inhibition of interaction of EthR with its target DNA sequence (BIAcore); assay type: binding, M. tuberculosis H37Rv; conditions: compound 3 μM, EthR 540 nM, 37° C.
Procedure: a) Measurement of the Activity of the Compounds on the Inhibition of Interaction of EthR with its Target DNA Sequence
The in vitro measurements of inhibition of binding of the EthR protein to its target DNA sequence were performed on a machine of BIAcore®2000 type (AB, Uppsala, Sweden).
The chips used are CM5 chips sold by the company GE Healthcare. Both the channels of a chip were activated with a solution containing 200 mM of EDC(N-ethyl-N′-(3-[…])carbodiimide) and 50 mM of NHS (N-hydroxysuccinimide). Next, streptavidin (500 ng/μl in a solution containing 10 mM of sodium acetate (pH 3.5) was injected over 12 minutes at a flow rate of 10 μl/minute. The 106-base-pair biotinylated DNA fragment corresponding to the ethA-R intergene region was deposited on one of the two channels of the chip at a rate of 200 ng/ml in order to obtain stable binding of streptavidin corresponding to 50 RU (resonance units). This DNA fragment was obtained by PCR using the chromosomal DNA of M. tuberculosis H37Rv as matrix and O-270: 5′-[…]-3′ (SEQ ID: No. 1) and O-271: 5′-biotin-[…]-3′ (SEQ ID: No. 2). The second channel was functionalized with a 113-base-pair biotinylated DNA fragment (fragment +14 to +127 of the bla gene of E. coli PCR-amplified using the following oligonucleotides: O-343: 5′-[…]-3′ (SEQ ID: No. 3) and O-344: 5′-biotin-[…]-3′ (SEQ ID: No. 4).
Measurement of the binding of the EthR protein to the immobilized DNA was performed at 37° C. in a reference buffer containing 10 mM of Tris-HCl (pH=7.5), 200 mM of NaCl, 0.1 mM of EDTA, 1 mM of DTT and 1% of DMSO at a flow rate of 20 μl/minute. The specific interaction (SI) of EthR with the 106-base-pair double-stranded DNA sequence, expressed in resonance units, corresponds to the difference in signal observed between the two channels.
For each inhibition measurement, the compounds of the invention are dissolved in the reference buffer at a concentration of 3 μM. The compounds of the invention are then incubated in the presence of the protein (540 nM) at 37° C. for 5 minutes, and each solution is then injected onto the two channels of the chip for 3 minutes at a flow rate of 20 μl/minute. The inhibition values are calculated at the end of the injection according to the following equation: […]
in which SIEthR corresponds to the value measured without ligand and SIEthR+ligand corresponds to the value measured in the presence of to ligand.

[4] = strain 1%, no ETH, ligand 25 μM
[5] = strain 100%, ETH 0.025 μg/mL + ligand 25 μM
[6] = strain 100%, ETH 0.05 μg/mL + ligand 25 μM
[7] = strain 100%, ETH 0.1 μg/mL + ligand 25 μM
[8] = strain 100%, ETH 0.25 μg/mL + ligand 25 μM
[9] = strain 100%, no ETH, ligand 25 μM

T1 sequence (P9WMC1 whole entry, looked up): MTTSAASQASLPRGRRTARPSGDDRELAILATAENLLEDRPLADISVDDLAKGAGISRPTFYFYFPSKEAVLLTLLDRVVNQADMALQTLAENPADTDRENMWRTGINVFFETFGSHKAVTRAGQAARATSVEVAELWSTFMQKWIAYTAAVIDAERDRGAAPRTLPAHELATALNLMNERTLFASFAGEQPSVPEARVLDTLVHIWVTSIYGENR

## O=C(CC1CC1)N1CCC(c2nc(-c3cccs3)no2)CC1 [Compound 33, 2-cyclopropyl-1-[4-(3-thiophen-2-yl[1,2,4]oxadiazol-5-yl)piperid-1-yl]ethanone]
EthR protein [1]
  IC50: 1120 nM
M. bovis BCG
  Potentiation %: 2500%
[2]
  solubility at 24 h: 63.5 µg/mL (≈ 200 µM)
M. tuberculosis H37Rv
  bacterial growth-inhibiting properties of the compound alone: absence of bacterial growth-inhibiting properties
  MIC: 0.05 µg/mL and 0.3 µM
M. tuberculosis H37Rv; [4]
  State: R
  fluorescence reading D + 0: 0
  fluorescence reading D + 1: 0
  fluorescence reading D + 5 (first column, c6): 0
  fluorescence reading D + 5 (second column, c7): 0
  fluorescence reading D + 6: 1
  fluorescence reading D + 7 (first column, c9): 180
  fluorescence reading D + 7 (second column, c10): 319
  fluorescence reading J + 8: 400
M. tuberculosis H37Rv; [5]
  State: R
  fluorescence reading D + 0: 0
  fluorescence reading D + 1: 0
  fluorescence reading D + 5 (first column, c6): 200
  fluorescence reading D + 5 (second column, c7): 353
  fluorescence reading D + 6: 400
  fluorescence reading D + 7 (first column, c9): 400
  fluorescence reading D + 7 (second column, c10): 400
  fluorescence reading J + 8: 400
M. tuberculosis H37Rv; [6]
  State: S
  fluorescence reading D + 0: 0
  fluorescence reading D + 1: 0
  fluorescence reading D + 5 (first column, c6): 0
  fluorescence reading D + 5 (second column, c7): 0
  fluorescence reading D + 6: 0
  fluorescence reading D + 7 (first column, c9): 0
  fluorescence reading D + 7 (second column, c10): 0
  fluorescence reading J + 8: 0
M. tuberculosis H37Rv; [7]
  State: S
  fluorescence reading D + 0: 0
  fluorescence reading D + 1: 0
  fluorescence reading D + 5 (first column, c6): 0
  fluorescence reading D + 5 (second column, c7): 0
  fluorescence reading D + 6: 0
  fluorescence reading D + 7 (first column, c9): 0
  fluorescence reading D + 7 (second column, c10): 0
  fluorescence reading J + 8: 0
M. tuberculosis H37Rv; [8]
  State: S
  fluorescence reading D + 0: 0
  fluorescence reading D + 1: 0
  fluorescence reading D + 5 (first column, c6): 0
  fluorescence reading D + 5 (second column, c7): 0
  fluorescence reading D + 6: 0
  fluorescence reading D + 7 (first column, c9): 0
  fluorescence reading D + 7 (second column, c10): 0
  fluorescence reading J + 8: 0
M. tuberculosis H37Rv; [9]
  State: R
  fluorescence reading D + 0: 0
  fluorescence reading D + 1: 0
  fluorescence reading D + 5 (first column, c6): 400
  fluorescence reading D + 5 (second column, c7): 400
  fluorescence reading D + 6: 400
  fluorescence reading D + 7 (first column, c9): 400
  fluorescence reading D + 7 (second column, c10): 400
  fluorescence reading J + 8: 400
EthR protein [3]
  inhibition at 3 µM: 71%

## O=C(Cc1cccs1)N1CCC(c2nc(-c3cccs3)no2)CC1 [Compound 43, 2-thiophen-2-yl-1-[4-(3-thiophen-2-yl[1,2,4]oxadiazol-5-yl)piperid-1-yl]ethanone]
EthR protein [1]
  IC50: 520 nM
M. bovis BCG
  Potentiation %: 2500%
[2]
  solubility at 24 h: 26.9 µg/mL (≈ 74.8 µM)
M. tuberculosis H37Rv
  bacterial growth-inhibiting properties of the compound alone: absence of bacterial growth-inhibiting properties
  MIC: < 0.025 µg/mL and < 0.15 µM
  potentiation of the ethionamide activity (factor): ≥ 40 fold
M. tuberculosis H37Rv; listed as compound 43
  potentiation of the ethionamide activity (factor): about 40 fold
M. tuberculosis H37Rv; [4]
  State: R
  fluorescence reading D + 0: 0
  fluorescence reading D + 1: 0
  fluorescence reading D + 5 (first column, c6): 0
  fluorescence reading D + 5 (second column, c7): 0
  fluorescence reading D + 6: 0
  fluorescence reading D + 7 (first column, c9): 168
  fluorescence reading D + 7 (second column, c10): 292
  fluorescence reading J + 8: 400
M. tuberculosis H37Rv; [5]
  State: S
  fluorescence reading D + 0: 0
  fluorescence reading D + 1: 0
  fluorescence reading D + 5 (first column, c6): 0
  fluorescence reading D + 5 (second column, c7): 0
  fluorescence reading D + 6: 0
  fluorescence reading D + 7 (first column, c9): 0
  fluorescence reading D + 7 (second column, c10): 0
  fluorescence reading J + 8: 0
M. tuberculosis H37Rv; [6]
  State: S
  fluorescence reading D + 0: 0
  fluorescence reading D + 1: 0
  fluorescence reading D + 5 (first column, c6): 0
  fluorescence reading D + 5 (second column, c7): 0
  fluorescence reading D + 6: 0
  fluorescence reading D + 7 (first column, c9): 0
  fluorescence reading D + 7 (second column, c10): 0
  fluorescence reading J + 8: 0
M. tuberculosis H37Rv; [7]
  State: S
  fluorescence reading D + 0: 0
  fluorescence reading D + 1: 0
  fluorescence reading D + 5 (first column, c6): 0
  fluorescence reading D + 5 (second column, c7): 0
  fluorescence reading D + 6: 0
  fluorescence reading D + 7 (first column, c9): 0
  fluorescence reading D + 7 (second column, c10): 0
  fluorescence reading J + 8: 0
M. tuberculosis H37Rv; [8]
  State: S
  fluorescence reading D + 0: 0
  fluorescence reading D + 1: 0
  fluorescence reading D + 5 (first column, c6): 0
  fluorescence reading D + 5 (second column, c7): 0
  fluorescence reading D + 6: 0
  fluorescence reading D + 7 (first column, c9): 0
  fluorescence reading D + 7 (second column, c10): 0
  fluorescence reading J + 8: 0
M. tuberculosis H37Rv; [9]
  State: R
  fluorescence reading D + 0: 0
  fluorescence reading D + 1: 0
  fluorescence reading D + 5 (first column, c6): 400
  fluorescence reading D + 5 (second column, c7): 400
  fluorescence reading D + 6: 400
  fluorescence reading D + 7 (first column, c9): 400
  fluorescence reading D + 7 (second column, c10): 400
  fluorescence reading J + 8: 400
EthR protein [3]
  inhibition at 3 µM: 93%

## O=C(Nc1cccs1)N1CCC(c2nc(-c3cccs3)no2)CC1 [Compound 50, 4-(3-thiophen-2-yl[1,2,4]oxadiazol-5-yl)piperidine-1-carboxylic acid thiophen-2-ylamide]
EthR protein [1]
  IC50: 440 nM
[2]
  solubility at 24 h: 2.9 µg/mL (≈ 8.05 µM)
EthR protein [3]
  inhibition at 3 µM: 96%
